The record followed here is patent US10004732B2 (Novartis AG, priority 2014, dated 2018).

Read-outs that look alike come from different tables or passages of the source. Some results are limits rather than exact numbers.

Data set [1] deals with mTOR (Homo sapiens, UniProt P42345). The data set can be described thus: Lanthascreen kinase binding assay, assay G. The conditions noted are these: read-out: Assay G mTOR IC50. For orientation: TR-FRET usually uses a lanthanide donor and a delayed reading to cut background.
Method: Lanthascreen™ Kinase Binding Assay for mTOR (G)
Binding of an inhibitor to the kinase competes for binding with the tracer, resulting in a loss of FRET.
50 nL of compound dilutions were dispensed onto white 384-well small volume polystyrene plate.
Data set [2] concerns the target T1, PI 3-kinase beta (Homo sapiens, UniProt P42338). The data set can be described thus: Kinase Glo Luminescent Kinase Assay (Kglo), assay B. The data set is classed as biochemical. The conditions noted are these: read-out: Assay B PI3Kβ IC50.
Target sequence in this assay (P42338 whole entry): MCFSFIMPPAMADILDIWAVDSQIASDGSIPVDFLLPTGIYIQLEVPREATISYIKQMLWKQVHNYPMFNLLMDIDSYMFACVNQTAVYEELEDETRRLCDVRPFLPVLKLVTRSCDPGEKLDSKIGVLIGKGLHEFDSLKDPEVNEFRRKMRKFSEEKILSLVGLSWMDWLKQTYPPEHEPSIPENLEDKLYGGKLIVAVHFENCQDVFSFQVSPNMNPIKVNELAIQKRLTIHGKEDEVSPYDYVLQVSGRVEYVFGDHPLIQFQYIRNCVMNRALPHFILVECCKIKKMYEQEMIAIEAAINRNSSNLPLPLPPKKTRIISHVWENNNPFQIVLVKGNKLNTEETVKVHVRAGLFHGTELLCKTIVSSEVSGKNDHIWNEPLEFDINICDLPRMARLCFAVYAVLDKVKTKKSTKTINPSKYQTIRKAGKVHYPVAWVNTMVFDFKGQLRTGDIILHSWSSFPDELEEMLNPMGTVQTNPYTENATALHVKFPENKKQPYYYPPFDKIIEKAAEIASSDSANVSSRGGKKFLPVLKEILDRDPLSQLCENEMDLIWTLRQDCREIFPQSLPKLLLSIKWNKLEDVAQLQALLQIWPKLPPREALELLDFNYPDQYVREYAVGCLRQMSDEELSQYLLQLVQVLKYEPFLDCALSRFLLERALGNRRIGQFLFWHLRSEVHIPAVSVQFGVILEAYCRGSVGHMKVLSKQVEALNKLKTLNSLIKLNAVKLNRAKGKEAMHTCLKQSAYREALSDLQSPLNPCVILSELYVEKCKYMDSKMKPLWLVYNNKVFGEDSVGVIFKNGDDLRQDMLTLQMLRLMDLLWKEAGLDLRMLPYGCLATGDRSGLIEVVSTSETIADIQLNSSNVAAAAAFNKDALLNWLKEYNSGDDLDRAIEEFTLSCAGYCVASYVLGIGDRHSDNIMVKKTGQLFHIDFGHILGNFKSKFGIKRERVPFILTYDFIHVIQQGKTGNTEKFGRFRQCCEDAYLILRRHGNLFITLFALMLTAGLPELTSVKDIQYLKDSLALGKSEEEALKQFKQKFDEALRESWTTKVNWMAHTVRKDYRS
Target sequence in this assay (P27986 461-568 partner): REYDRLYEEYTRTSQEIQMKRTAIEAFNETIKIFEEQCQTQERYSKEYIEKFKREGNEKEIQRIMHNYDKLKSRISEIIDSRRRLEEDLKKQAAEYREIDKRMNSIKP
Data set [3] concerns the target Vps34 (Homo sapiens, UniProt Q8NEB9). The data set can be described thus: Kinase Glo Luminescent Kinase Assay (Kglo), assay C. Format: biochemical. The conditions noted are these: read-out: Assay C VPS34 IC50. For orientation: In Kinase-Glo more light means more ATP remaining.
In data set [4] the target is T1, PI 3-kinase beta. The data set can be described thus: Cellular assay I1, p-Akt (S473) in Rat-1 cells, Surefire format. Format: cell-based. The settings on record: non-asterisked data: version I1 (Surefire format), Rat-1 cells; read-out: Assay I PI3Kβ IC50.
Target sequence in this assay (P42338 whole entry): as the sequence (P42338 whole entry) above
Target sequence in this assay (Q63787 whole entry partner): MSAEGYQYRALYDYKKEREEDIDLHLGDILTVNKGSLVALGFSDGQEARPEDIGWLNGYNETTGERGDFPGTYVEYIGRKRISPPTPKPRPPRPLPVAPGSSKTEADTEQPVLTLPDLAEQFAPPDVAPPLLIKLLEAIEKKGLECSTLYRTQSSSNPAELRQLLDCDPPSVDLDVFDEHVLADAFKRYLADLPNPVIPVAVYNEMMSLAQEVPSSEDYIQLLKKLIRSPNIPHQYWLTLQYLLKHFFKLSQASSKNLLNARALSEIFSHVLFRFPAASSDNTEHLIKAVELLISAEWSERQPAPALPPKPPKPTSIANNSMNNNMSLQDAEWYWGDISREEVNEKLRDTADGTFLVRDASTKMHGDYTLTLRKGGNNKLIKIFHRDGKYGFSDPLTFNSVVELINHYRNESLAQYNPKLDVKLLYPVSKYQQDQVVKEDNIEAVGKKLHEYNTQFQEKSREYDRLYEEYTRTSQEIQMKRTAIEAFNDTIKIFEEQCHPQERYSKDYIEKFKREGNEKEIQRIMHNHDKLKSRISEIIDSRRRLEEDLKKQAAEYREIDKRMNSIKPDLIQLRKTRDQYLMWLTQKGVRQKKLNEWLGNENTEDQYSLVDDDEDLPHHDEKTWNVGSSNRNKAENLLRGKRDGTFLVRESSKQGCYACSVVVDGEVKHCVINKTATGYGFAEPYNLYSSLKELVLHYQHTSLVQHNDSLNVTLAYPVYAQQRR
Data set [5] has as its target T2, PI 3-kinase alpha (Homo sapiens, UniProt P42336). The data set can be described thus: Kinase Glo Luminescent Kinase Assay (Kglo), assay A. Format: biochemical. The conditions noted are these: read-out: Assay A PI3Kα IC50.
Target sequence in this assay (P42336 whole entry): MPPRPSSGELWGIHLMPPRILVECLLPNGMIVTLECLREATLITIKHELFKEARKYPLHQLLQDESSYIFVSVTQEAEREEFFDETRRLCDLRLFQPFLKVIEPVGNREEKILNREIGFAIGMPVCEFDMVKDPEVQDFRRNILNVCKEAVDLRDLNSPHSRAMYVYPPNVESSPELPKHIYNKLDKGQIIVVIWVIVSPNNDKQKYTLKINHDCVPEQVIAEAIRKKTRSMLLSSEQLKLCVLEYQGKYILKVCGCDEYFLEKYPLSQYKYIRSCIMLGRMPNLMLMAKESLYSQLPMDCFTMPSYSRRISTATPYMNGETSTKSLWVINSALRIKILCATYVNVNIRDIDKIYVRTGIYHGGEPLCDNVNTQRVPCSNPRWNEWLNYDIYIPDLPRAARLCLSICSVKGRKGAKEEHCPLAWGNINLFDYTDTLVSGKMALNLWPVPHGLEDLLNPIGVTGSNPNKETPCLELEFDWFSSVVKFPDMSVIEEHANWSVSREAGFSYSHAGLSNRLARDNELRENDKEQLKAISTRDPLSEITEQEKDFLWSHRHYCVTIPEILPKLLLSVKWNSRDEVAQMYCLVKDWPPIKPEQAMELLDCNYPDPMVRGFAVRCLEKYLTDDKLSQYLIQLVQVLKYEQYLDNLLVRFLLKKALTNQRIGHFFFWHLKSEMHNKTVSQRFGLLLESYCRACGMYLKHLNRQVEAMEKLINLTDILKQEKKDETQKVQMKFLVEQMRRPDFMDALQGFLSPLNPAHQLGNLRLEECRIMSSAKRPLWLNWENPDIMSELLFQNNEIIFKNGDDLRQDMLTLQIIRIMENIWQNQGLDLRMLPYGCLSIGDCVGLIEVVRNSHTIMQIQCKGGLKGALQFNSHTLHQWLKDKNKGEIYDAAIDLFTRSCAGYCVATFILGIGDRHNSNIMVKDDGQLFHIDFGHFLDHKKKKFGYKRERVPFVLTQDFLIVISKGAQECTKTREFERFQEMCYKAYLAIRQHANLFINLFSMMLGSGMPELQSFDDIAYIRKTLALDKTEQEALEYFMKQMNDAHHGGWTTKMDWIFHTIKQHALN
In data set [6] the target is T3, PI 3-kinase gamma (Homo sapiens, UniProt P48736). The data set can be described thus: Cellular U937 AKT assay K1 (MSD). Format: cell-based. The settings on record: U937 cells, K1 format; read-out: Assay K1 PI3Kγ IC50.
T3 sequence (P48736 whole entry): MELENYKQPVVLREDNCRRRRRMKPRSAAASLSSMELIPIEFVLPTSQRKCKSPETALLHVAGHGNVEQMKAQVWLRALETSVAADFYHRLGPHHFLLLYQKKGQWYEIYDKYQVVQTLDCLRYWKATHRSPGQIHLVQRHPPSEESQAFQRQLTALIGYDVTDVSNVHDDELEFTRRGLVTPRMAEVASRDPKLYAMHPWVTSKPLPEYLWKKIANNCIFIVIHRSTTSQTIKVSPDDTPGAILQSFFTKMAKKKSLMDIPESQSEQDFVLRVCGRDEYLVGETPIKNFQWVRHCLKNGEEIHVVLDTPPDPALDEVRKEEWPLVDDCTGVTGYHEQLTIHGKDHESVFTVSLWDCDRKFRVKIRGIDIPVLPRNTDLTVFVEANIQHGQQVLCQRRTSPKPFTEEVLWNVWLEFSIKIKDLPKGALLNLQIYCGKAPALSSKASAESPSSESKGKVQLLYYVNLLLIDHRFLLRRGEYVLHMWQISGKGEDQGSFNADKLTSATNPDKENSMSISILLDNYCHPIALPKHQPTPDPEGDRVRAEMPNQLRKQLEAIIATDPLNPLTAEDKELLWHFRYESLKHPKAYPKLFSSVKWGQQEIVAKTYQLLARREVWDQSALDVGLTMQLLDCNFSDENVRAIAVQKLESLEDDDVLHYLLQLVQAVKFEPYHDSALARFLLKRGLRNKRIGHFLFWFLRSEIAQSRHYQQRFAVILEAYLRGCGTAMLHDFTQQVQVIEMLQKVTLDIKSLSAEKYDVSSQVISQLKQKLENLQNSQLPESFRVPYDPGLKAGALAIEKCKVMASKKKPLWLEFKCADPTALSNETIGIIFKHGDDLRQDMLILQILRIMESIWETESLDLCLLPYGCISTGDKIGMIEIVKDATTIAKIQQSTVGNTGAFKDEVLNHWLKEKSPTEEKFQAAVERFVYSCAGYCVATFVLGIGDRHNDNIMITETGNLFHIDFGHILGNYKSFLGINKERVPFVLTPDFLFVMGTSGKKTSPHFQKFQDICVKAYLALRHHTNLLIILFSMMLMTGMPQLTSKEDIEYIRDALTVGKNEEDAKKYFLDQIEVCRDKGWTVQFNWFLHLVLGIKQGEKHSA
Data set [7] addresses T2, PI 3-kinase alpha. The data set can be described thus: Cellular assay H1, p-Akt (S473) in Rat-1 cells, Surefire format. The data set is classed as cell-based. The settings on record: non-asterisked data: version H1 (Surefire format), Rat-1 cells; read-out: Assay H PI3Kα IC50.
Target sequence in this assay (P42336 whole entry): as the sequence (P42336 whole entry) above
Target sequence in this assay (Q63787 whole entry partner): as the sequence (Q63787 whole entry partner) above
Data set [8] has as its target T3, PI 3-kinase gamma. The data set can be described thus: TR-FRET Adapta assay, assay E. The data set is classed as biochemical. The settings on record: read-out: Assay E PI3Kγ IC50.
Data set [9] deals with IL-8-induced neutrophil shape change in human whole blood. The data set can be described thus: Whole blood neutrophil shape change assay (L). The data set is classed as cell-based. The settings on record: IL-8, human whole blood, read-out: Assay L WBSC IC50.
Data set [10] addresses T4, PI 3-kinase delta (Homo sapiens, UniProt O00329). The data set can be described thus: TR-FRET Adapta assay, assay F. The conditions noted are these: read-out: Assay F PI3Kδ IC50.
Data set [11] deals with T4, PI 3-kinase delta. The data set can be described thus: Cellular assay J1, p-Akt (S473) in Rat-1 cells, Surefire format. The data set is classed as cell-based. The conditions noted are these: non-asterisked data: version J1 (Surefire format), Rat-1 cells; read-out: Assay J PI3Kδ IC50.
From the text: Cellular Assays for PI 3-Kinase Alpha (H1), Beta (I1) and Delta (J1): Surefire Format
AlphaScreen (Amplified Luminescent Proximity Homogeneous Assay, ALPHA, Perkin Elmer) is a non-radioactive bead-based proximity assay technology to study biomolecular interactions in a homogenous microtiter plate format. The brand name SureFire denotes AlphaScreen assays that are adapted to quantify the phosphorylation of endogenous cellular proteins in cell lysates, by using matched antibody pairs, which consist of an anti-phospho-kinase and an anti-kinase antibody. The assay allows characterization of kinase signaling in cells as well as measurement of kinase inhibitor effects.
Using Rat-1 cells stably expressing myr-HA-tagged versions of the human PI3Kdelta, PI3Kalpha, or PI3Kbeta p110 catalytic subunit isoforms, the assay was developed as a two-plate protocol in a 384-well format.
For compound testing, the cells were seeded at a density of 4000 (Rat-1_PI3Kdelta), 7500 (Rat-1_PI3Kalpha), or 6200 (Rat-1_PI3Kbeta) cells in 20 μl complete growth medium into cell culture treated 384-well plates and were grown at 37° C./5% CO2/90% humidity for 24 h. Shortly before compound transfer, the complete medium was removed, 30 μl assay buffer (DMEM high glucose, 1×MEM NEAA, 10 mM HEPES, 2 mM L-glutamine, 0.1% (w/v) BSA) was added and 10 μl of the compound predilutions were transferred to the cells.
The target in data set [12] is PI 4-kinase beta (Homo sapiens, UniProt Q9UBF8). The data set can be described thus: Kinase Glo Luminescent Kinase Assay (Kglo), assay D. Format: biochemical. The conditions noted are these: read-out: Assay D PI4Kβ IC50.
Data set [13] in a line: Microsomal clearance assay (M). The settings on record: intrinsic clearance in rat liver microsomes.
Method: The experiments were performed in 96-well glass plates at 37° C. on an automated Tecan EVO platform. Test compounds at a concentration of 10 mM in pure DMSO were diluted 1:1000 in water to 10 μM. […] Reactions were initiated by the addition of 150 μL of a cofactor solution containing 2 mM NADPH.

Chain of Vps34 (Q8NEB9 whole entry, species assumed): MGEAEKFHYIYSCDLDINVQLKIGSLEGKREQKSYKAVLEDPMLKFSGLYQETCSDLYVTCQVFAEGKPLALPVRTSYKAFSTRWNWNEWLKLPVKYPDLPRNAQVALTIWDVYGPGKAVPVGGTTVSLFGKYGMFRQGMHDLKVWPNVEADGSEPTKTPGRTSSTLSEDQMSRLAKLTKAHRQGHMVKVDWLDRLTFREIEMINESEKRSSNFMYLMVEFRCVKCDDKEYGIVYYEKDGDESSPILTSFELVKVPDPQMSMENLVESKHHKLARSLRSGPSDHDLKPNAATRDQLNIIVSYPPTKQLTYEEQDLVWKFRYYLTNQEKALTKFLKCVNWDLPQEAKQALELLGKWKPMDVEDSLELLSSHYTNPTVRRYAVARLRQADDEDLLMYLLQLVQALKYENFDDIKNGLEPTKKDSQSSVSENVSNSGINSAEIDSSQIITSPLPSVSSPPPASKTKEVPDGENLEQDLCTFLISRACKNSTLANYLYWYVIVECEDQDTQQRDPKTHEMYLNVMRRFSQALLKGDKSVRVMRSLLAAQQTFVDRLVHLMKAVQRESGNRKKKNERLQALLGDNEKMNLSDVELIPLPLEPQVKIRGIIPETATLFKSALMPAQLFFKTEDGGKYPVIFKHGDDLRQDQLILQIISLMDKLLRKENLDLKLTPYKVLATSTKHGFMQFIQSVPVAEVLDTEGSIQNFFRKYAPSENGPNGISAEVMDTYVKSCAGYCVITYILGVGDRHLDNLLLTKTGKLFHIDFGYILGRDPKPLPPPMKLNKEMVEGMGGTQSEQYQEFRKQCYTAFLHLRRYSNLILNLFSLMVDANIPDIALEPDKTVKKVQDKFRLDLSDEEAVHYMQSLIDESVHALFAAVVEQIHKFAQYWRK

As for `CCc1noc(-c2nc(-c3cc(S(=O)(=O)NCCC(C)(C)O)ccc3C)cnc2N)n1` [Example 136, 3-(5-Amino-6-(3-ethyl-1,2,4-oxadiazol-5-yl)pyrazin-2-yl)-N-(3-hydroxy-3-methylbutyl)-4-methylbenzenesulfonamide], the IC50 in data set [1] was above 9.1 µM; in data set [2], above 9.1 µM; in [3] it was above 9.1 µM; in [4], above 10 µM; in data set [5], 0.44 µM; in data set [6], 0.124 µM. For the same compound, the IC50 is 0.99 µM in data set [7]; 0.012 µM in data set [8]; 1.3 µM in data set [9] (Homo sapiens, Neutrophil); 0.13 µM in data set [10]; 1.12 µM in data set [11]; above 9.1 µM in data set [12].
With `Cc1ccc(S(=O)(=O)NCCC(C)(C)O)cc1-c1cnc(N)c(-n2cccn2)n1` [Example 62, 3-(5-Amino-6-(1H-pyrazol-1-yl)pyrazin-2-yl)-N-(3-hydroxy-3-methylbutyl)-4-methylbenzenesulfonamide], in data set [13], the “Assay M RLM CI(int)” value was found to be 155 µL/min/mg. The IC50 in data set [1] was above 9.1 µM; in [2], 1.01 µM; in data set [3] it was above 9.1 µM; in [5], 0.68 µM; in data set [6], 0.11 µM; in [7], 1.44 µM. Besides, the IC50 in [8] was 0.056 µM; in data set [9] (Homo sapiens, Neutrophil), 7.91 µM; in data set [10], 0.21 µM; in [11], 0.97 µM; in data set [12] it was 3.68 µM.
Take `Cc1noc(-c2nc(-c3cc(S(=O)(=O)NCCC(C)(C)O)ccc3C)cnc2N)n1` [Example 3, 3-[5-Amino-6-(3-methyl-[1,2,4]oxadiazol-5-yl)-pyrazin-2-yl]-N-(3-hydroxy-3-methyl-butyl)-4-methyl-benzenesulfonamide]: the IC50 is above 9.1 µM in [1]; 5.88 µM in data set [2]; above 9.1 µM in data set [3]; 8.33 µM in data set [4]; 0.6 µM in [5]; 0.394 µM in data set [6]. Also, the 50% inhibitory concentration (IC50) in [7] was 1.04 µM; in data set [8], 0.046 µM; in data set [9] (Homo sapiens, Neutrophil) it was 1.11 µM; in data set [10] it was 0.14 µM; in [11], 1.17 µM; in data set [12], above 9.1 µM.
Turning to `Cc1ccc(S(=O)(=O)N[C@H]2CC[C@H](O)CC2)cc1-c1cnc(N)c(-c2cnn(C)c2)n1` [Example 58, Trans-3-(5-Amino-6-(1-methyl-1H-pyrazol-4-yl)pyrazin-2-yl)-N-(-4-hydroxycyclohexyl)-4-methylbenzenesulfonamide], the “Assay M RLM CI(int)” value in data set [13] was 14 µL/min/mg. Also, the IC50 in [1] was above 9.1 µM; in [2], 2.93 µM; in data set [3], 3.1 µM; in data set [5], 0.49 µM; in data set [6] it was 0.073 µM; in [7] it was 8.58 µM. Also, the half-maximal inhibitory concentration (IC50) worked out at 0.019 µM in data set [8]; 0.385 µM in [9] (Homo sapiens, Neutrophil); 0.1 µM in data set [10]; 2.46 µM in data set [11]; 5.85 µM in [12].
Take `Cc1cn(-c2nc(-c3cc(S(=O)(=O)NCCC(C)(C)O)ccc3C)cnc2N)cn1` [Example 63, 3-(5-Amino-6-(4-methyl-1H-imidazol-1-yl)pyrazin-2-yl)-N-(3-hydroxy-3-methylbutyl)-4-methylbenzenesulfonamide]: the “Assay M RLM CI(int)” value in data set [13] was 44 µL/min/mg. Also, the IC50 is 6.5 µM in data set [1]; 3.93 µM in data set [2]; above 9.1 µM in data set [3]; 0.33 µM in [5]; 0.163 µM in data set [6]; 2.97 µM in data set [7]. In addition, the IC50 in data set [8] came to 0.068 µM; in data set [9] (Homo sapiens, Neutrophil) it was 0.626 µM; in data set [10], 0.42 µM; in data set [11] it was 3.25 µM; in [12], 7.85 µM.
Regarding `Cc1ccc(S(=O)(=O)N[C@H]2CC[C@@H](O)CC2)cc1-c1cnc(N)c(-c2cnn(C)c2)n1` [Example 75, 3-(5-Amino-6-(1-methyl-1H-pyrazol-4-yl)pyrazin-2-yl)-N-((1s,4s)-4-hydroxycyclohexyl)-4-methylbenzenesulfonamide], the “Assay M RLM CI(int)” value in data set [13] stood at 13 µL/min/mg. For the same compound, the IC50 was 4.51 µM in data set [1]; 2.48 µM in data set [2]; 7.49 µM in data set [3]; 0.47 µM in [5]; 0.091 µM in data set [6]; above 10 µM in data set [7]. Besides, the IC50 came to 0.056 µM in data set [8]; 0.83 µM in data set [9] (Homo sapiens, Neutrophil); 0.24 µM in [10]; 7.8 µM in data set [11]; 7.97 µM in [12].
For the compound `Cc1ccc(S(=O)(=O)NCC(F)F)cc1-c1cnc(N)c(-n2cncn2)n1` [Example 34, 3-(5-Amino-6-[1,2,4]triazol-1-yl-pyrazin-2-yl)-N-(2,2-difluoro-ethyl)-4-methyl-benzenesulfonamide], in [13], the “Assay M RLM CI(int)” value was 52 µL/min/mg. The IC50 in [1] was 2.5 µM; in data set [2] it was 2.5 µM; in data set [3] it was above 10 µM; in data set [5], 0.7 µM; in [6], 0.137 µM; in [8] it was 0.074 µM. The IC50 was found to be 0.805 µM in data set [9] (Homo sapiens, Neutrophil); 2.9 µM in data set [10]; 3.8 µM in data set [12].
As to `Cc1ccc(S(=O)(=O)NC2CC3(CC(O)C3)C2)cc1-c1cnc(N)c(-c2cn(C)nc2C)n1` (single isomer, unassigned) [Example 9a, (R)-3-[5-Amino-6-(1,3-dimethyl-1H-pyrazol-4-yl)-pyrazin-2-yl]-N-(6-hydroxy-spiro[3.3]hept-2-yl)-4-methyl-benzenesulfonamide or (S)-3-[5-Amino-6-(1,3-dimethyl-1H-pyrazol-4-yl)-pyrazin-2-yl]-N-(6-hydroxy-spiro[3.3]hept-2-yl)-4-methyl-benzenesulfonamide], in data set [13], the “Assay M RLM CI(int)” value is 34 µL/min/mg. The IC50 is 8.1 µM in data set [1]; 0.54 µM in [2]; above 10 µM in [3]; above 10 µM in data set [4]; 0.04 µM in data set [6]; 0.015 µM in data set [8]. For the same compound, the IC50 in [9] amounted to 0.327 µM; in data set [10], 0.2 µM; in [11], 3.53 µM.
On to `Cc1ccc(S(=O)(=O)NC2(CO)CC2)cc1-c1cnc(N)c(-n2cncn2)n1` [Example 98, 3-(5-Amino-6-(1H-1,2,4-triazol-1-yl)pyrazin-2-yl)-N-(1-(hydroxymethyl)cyclopropyl)-4-methylbenzenesulfonamide], for which the “Assay M RLM CI(int)” value in data set [13] came to 31 µL/min/mg. Also, the IC50 in data set [1] was above 9.1 µM; in [2] it was 1.4 µM; in data set [3], above 9.1 µM; in data set [5], 1.7 µM; in [6], 0.2 µM; in data set [8], 0.038 µM. Moreover, the IC50 in [9] (Homo sapiens, Neutrophil) was 4.17 µM; in [10], 0.31 µM; in [12], 2.5 µM.

For orientation: IC50 means the point on the concentration scale where inhibition reaches its midpoint.
